Data: patent US8673652B2, “Immunoassay with extended detection window” (priority 2010, dated 2014)
Converted amounts (≈) assume the structure as drawn.

Legend:
[1] = system: polyclonal antibody raised against zolpidem analogue derivatised at the 4'-phenyl ring coupled to BTG; test: Competitive ELISA for zolpidem (antibody specificity and sensitivity); assay type: binding, sheep; details: for IC50 (ng/ml) / IC50: competitive ELISA, hapten-HRP conjugate, absorbance at 450 nm; for % CR = percentage cross-reactivity based on 100% specificity to zolpidem: relative to zolpidem = 100%
Description: Analogues of zolpidem derivatised at the 4′-phenyl ring were coupled by way of a crosslinker to bovine thyroglobulin (BTG). The resulting immunogens were administered separately to adult sheep on a monthly basis to provide target-specific polyclonal antisera. IgG was extracted from the antisera via caprylic acid/ammonium sulphate precipitation of immunoglobulin. Microtitre plates were coated with antibody (125 μl/well) in coating buffer (10 mM Tris pH 8.5) at 37° C. for 2 h. The plates were then washed 4 times over 10 mins with working strength TBST. 50 μl of sample/standard (zolpidem, Sequioa SRP00500z; alpidem, TRC A575560; zaleplon, Sequioa SRP00300z; zopiclone, Sequioa SRP02000z; zolpidem Carboxylic Acid, Randox LK865 and zolpidem carboxylic acid, Randox LK855) was added to the appropriate wells in triplicate, followed by 75 μl of hapten-HRP conjugate and incubated at 25° C. for 1 h. The plates were then washed and 125 μl of TMB (Randox, 4380-15) was added to each well and left at room temperature for 20 mins in the dark. The reaction was stopped using 125 μl of 0.2M sulphuric acid. The absorbances were read at 450 nm with an ELISA microplate reader (BIO-TEK Instruments, Elx800) and the means calculated. Antibody specificity and sensitivity were then determined.
Competitive ELISA results in Table 1 and FIG. 3 highlight the specificity of the antibody of the disclosure towards zolpidem and cross-reactivity towards 4-[3-(2-N,N-dimethylamino-2-oxoethyl)-6-methylimidazo[1,2-a]pyridin-2-yl]benzoic acid. […] The disclosure, through its unique immunogens and antibodies, thus enables methods and kits able to detect and determine zolpidem and/or 4-[3-(2-N,N-dimethylamino-2-oxoethyl)-6-methylimidazo[1,2-a]pyridin-2-yl]benzoic acid with high sensitivity.

[2] = cited from earlier work

Structure (SMILES)	IC50 (ng/ml) [1]	% CR = percentage cross-reactivity based on 100% specificity to zolpidem [1]	IC50 [1] [ng/mL]	share of metabolite produced by cytochrome P450 mediated metabolism of zolpidem ([2]; metabolism mediated by cytochrome P450)	half-life ([2]; upon ingestion) [h]
CN1CCN(C(=O)OC2c3nccnc3C(=O)N2c2ccc(Cl)cn2)CC1 (centres unmarked) [Zopiclone, zopiclone]	>>50 ng/ml	<<1.26%	–	–	–
CCN(C(C)=O)c1cccc(-c2ccnc3c(C#N)cnn23)c1 [Zaleplon, zaleplon]	>>50 ng/ml	<<1.26%	–	–	–
CCCN(CCC)C(=O)Cc1c(-c2ccc(Cl)cc2)nc2ccc(Cl)cn12 [Alpidem, alpidem]	>>50 ng/ml	<<1.26%	–	–	–
Cc1ccc2nc(-c3ccc(C(=O)O)cc3)c(CC(=O)N(C)C)n2c1 [Hapten M1, 4-[3-(2-N,N-dimethylamino-2-oxoethyl)-6-methylimidazo[1,2-a]pyridin-2-yl]benzoic acid]	–	18.6%	3.33 (≈ 9.87 nM)	more than 80%	–
Cc1ccc(-c2nc3ccc(C(=O)O)cn3c2CC(=O)N(C)C)cc1 [Hapten M2, 3-(2-N,N-dimethylamino-2-oxoethyl)-2-(4-methylphenyl)imidazo[1,2-a]pyridin-6-yl carboxylic acid]	–	<0.13%	>500	–	–
Cc1ccc(-c2nc3ccc(C)cn3c2CC(=O)N(C)C)cc1 [Zolpidem, N,N-dimethyl-2-[6-methyl-2-(4-methylphenyl)imidazo[1,2-a]pyridin-3-yl]acetamide]	–	100%	0.63 (≈ 2.05 nM)	–	1.5 to 3
